Melting point data for 1 compound are collected here from patent publication US20050159460A1, “Peptide isosteres containing a heterocycle useful in the treatment of alzheimer's disease” (Elan Pharmaceuticals, priority 2001, published 2005).

With `CC(C)(C)OC(=O)[C@@H](C(N)c1ccccc1)[C@@H](O)C[C@@H](Cc1ccccc1)c1ncc2n1C(O)C(C)(C)C2=O` (stereo partly drawn) [Example 31, 3-[(1R,3S,4S)-1-benzyl-4-t-butoxycarbonyl-amino-3-hydroxy-5-phenylpentyl]-6,6-dimethyl-5-hydroxy-pyrrolo-[1,2-c]-imidazol-7-one], the melting point (commonly the temperature, or range, at which the solid turns liquid) is 88 to 90 °C.
